Data reported in US5900488A, “Method for treating mycosis using imidazolylacetonitrile derivatives” (Nihon Nohyaku Co., Ltd., priority 1995, dated 1999).
Converted amounts (≈) assume the structure as drawn. “Also recorded” adds a separate entry of the source. Where two headings read alike, the source gives them in different places.

Legend:
Aspergillus fumigatus = assay: In vitro antifungal activity against Aspergillus fumigatus, MIC by twofold agar dilution (Test Example 4); format: cell-based; details: read-out: MIC
Method: MICs were determined by the twofold agar dilution method with casitone agar which constituted with 0.9% bactocasitone, 1% bacto-yeast extract, 2% glucose, 0.1% KH2 PO4, 0.1% Na2 HPO4, 1% Na3 C6 H5 O7 and 1.6% agar. A loopful of each inoculum (1×10^6 conidia/ml) was streaked onto the agar plate containing a compound, and a fungal growth was observed after incubation for 48 hours at 35° C. The MIC was determined as the lowest drug concentration which prevented a visible fungal growth.

Trichophyton rubrum = assay: In vitro activity against Trichophyton rubrum, MIC by twofold macro-broth dilution (Test Example 1); format: cell-based
Method: (§1) Minimum inhibitory concentrations (MICs) were determined by the twofold macro-broth dilution method with Sabouraud's glucose broth which constituted with 1% bactopeptone and 4% glucose. To each tube containing 9.8 ml of the broth, 0.1 ml of each testing compound dissolved in DMSO and 0.1 ml of a conidial suspension (1×10^6 conidia/ml) were added. The fungal growth was observed after incubation for 7 days at 27° C. The MIC was determined as the lowest drug concentration which prevented a visible fungal growth.

[1] = test system: trichophyton mentagrophytes TIMM 2789; assay: Therapeutic efficacy on experimental tinea pedis in guinea pigs (Test Example 2); format: in vivo
Method: Male Hartley guinea pigs (Japan SLC Inc.) weighing 400 to 620 g were used for the infection study. One side of a paper disc (1.5 mm thick×8 mm diameter) was covered with a piece of aluminum foil while the other side was free to carry the inoculum suspension. The disc was immersed with 50 μl of the inoculum suspension (trichophyton mentagrophytes TIMM 2789, 1×10^8 conidia/ml), and was then fixed on the planta pedis of animal feet with an adhesive elastic tape. The disc was removed on the seventh day postinfection. Each agent dissolved in PEG 400 (0.1 ml/locus) was topically applied to the whole soles of guinea pigs once a day for 3 consecutive days, starting on the 10th day postinfection. Five days after the last treatment, the skin tissue from each planta pedis and the corresponding tarsus of all animals was cut into small blocks (about 2×2 mm). Ten skin blocks obtained from each part of the foot were implanted on a Sabouraud's glucose agar plate containing antibiotics, and were cultured at 27° C. for 14 days. The skin blocks yielding fungal growth were regarded as culture-positive, and the foot (planta pedis plus tarsus) with more than one culture-positive skin block was considered fungus-positive. In addition, the intensity of infection was assessed by the scores based on the number of culture-positive skin blocks. Namely, +10, +9, +8, +7, +6, +5, +4, +3, +2, +1 or 0 was given as the score according to the corresponding number of culture-positive skin blocks out of ten skin blocks studied. Statistical analyses for the rate of fungus-positive feet and the average intensity of infection were assessed by Fisher's exact probably test and Mann-Whitney's U-test, respectively.

Candida albicans = assay: In vitro antifungal activity against Candida albicans, MIC by twofold micro-broth dilution (Test Example 3); format: cell-based; details: 48 hours at 35° C., pH 7.0, read-out: MIC
Method: MICs were determined by the twofold micro-broth dilution method with RPMI 1640 buffered with morphorino-propanesulfonic acid to a final molarity of 0.165M (pH 7.0). One hundred μl of a yeast cell suspension (1 to 5×10^3 cells/ml) and 100 μl of the compound-containing medium were pipetted into each well flat-bottomed microtiter plates. After incubation for 48 hours at 35° C., the turbidity of each well was measured at 630 nm.

dermatophytes = assay: Antifungal activity against dermatophytes compared with racemic mixtures (general statement); details: especially highly sensitive strains
[2] = test system: Trichophyton mentagrophytes; assay: In vitro activity against Trichophyton mentagrophytes, MIC by twofold macro-broth dilution (Test Example 1); format: cell-based; details: for MIC: Trichophyton mentagrophytes, 7 days at 27° C.
Method: as §1

[3] = 0.5% in PEG 400, topical once a day for 3 days, p < 0.01 vs untreated and PEG 400 control
[4] = 1% in PEG 400, topical once a day for 3 days, p < 0.01 vs untreated and PEG 400, Compound (A) also p < 0.05 vs 1% Racemic Compound (A)
[5] = 1% in PEG 400, topical once a day for 3 days, p < 0.01 vs untreated and PEG 400 control

Compound: N#C/C(=C1/SC[C@@H](c2ccccc2Cl)S1)n1ccnc1 [Compound (A), R-(+)-(E)-[4-(2-chlorophenyl)-1,3-dithiolan-2-ylidene]-1-imidazolylacetonitrile]
- MIC (Aspergillus fumigatus; TIMM0063, strain TIMM 0063, 48 hours at 35° C.): 0.63 ng/mL (≈ 0.00197 µM)
- MIC (Aspergillus fumigatus; TIMM0078, strain TIMM 0078, 48 hours at 35° C.): 0.63 ng/mL (≈ 0.00197 µM)
- MIC (Aspergillus fumigatus; TIMM1728, strain TIMM 1728, 48 hours at 35° C.): 1.3 ng/mL (≈ 0.00406 µM)
- MIC (Aspergillus fumigatus; TIMM1767, strain TIMM 1767, 48 hours at 35° C.): 1.3 ng/mL (≈ 0.00406 µM)
- sensitivity (in words) (Trichophyton rubrum): highly sensitive
- MIC (Trichophyton rubrum; IFO5467, 168 h, strain IFO 5467, 7 days at 27° C.): 1.3 ng/mL (≈ 0.00406 µM)
- MIC (Trichophyton rubrum; IFO5807, 168 h, strain IFO 5807, 7 days at 27° C.): 2.5 ng/mL (≈ 0.00782 µM)
- MIC (Trichophyton rubrum; IFO5808, 168 h, strain IFO 5808, 7 days at 27° C.): 2.5 ng/mL (≈ 0.00782 µM)
- MIC (Trichophyton rubrum; IFO6203, 168 h, strain IFO 6203, 7 days at 27° C.): 2.5 ng/mL (≈ 0.00782 µM)
- MIC (Trichophyton rubrum; IFO6204, 168 h, strain IFO 6204, 7 days at 27° C.): 2.5 ng/mL (≈ 0.00782 µM)
- MIC (Trichophyton rubrum; IFO9185, 168 h, strain IFO 9185, 7 days at 27° C.): 1.3 ng/mL (≈ 0.00406 µM)
- MIC (Trichophyton rubrum; TIMM1822, 168 h, strain TIMM 1822, 7 days at 27° C.): 1.3 ng/mL (≈ 0.00406 µM)
- MIC (Trichophyton rubrum; TIMM1823, 168 h, strain TIMM 1823, 7 days at 27° C.): 2.5 ng/mL (≈ 0.00782 µM)
- MIC (Trichophyton rubrum; TIMM1824, 168 h, strain TIMM 1824, 7 days at 27° C.): 1.3 ng/mL (≈ 0.00406 µM)
- MIC (Trichophyton rubrum; TIMM1830, 168 h, strain TIMM 1830, 7 days at 27° C.): 0.63 ng/mL (≈ 0.00197 µM)
- effect relative to 1% Racemic Compound (A) ([1]; 0.5% Compound (A) vs 1% Racemic Compound (A)): twice; also recorded: more than twice
- Average intensity of infection, planta pedis (score 0 to +10) [1, 3]: +0.3
- Average intensity of infection, tarsus (score 0 to +10) [1, 3]: 0
- Fungus-positive rate (%) [1, 3]: 20%
- Fungus-positive rate: The number of positive feet/The total number of feet [1, 3]: 2/10
- Fungus-positive rate (%) [1, 4]: 0%
- Fungus-positive rate: The number of positive feet/The total number of feet [1, 4]: 0/10
- Average intensity of infection, planta pedis (score 0 to +10) [1, 5]: 0
- Average intensity of infection, tarsus (score 0 to +10) [1, 5]: 0
- curative effect (in words) ([1]; 1% treated group): mycologically complete healing
- curative effect compared with Racemic Compound (A) ([1]; at the same concentration): markedly higher
- MIC (Candida albicans; IFO0197, strain IFO 0197, 80% inhibition): 62.5 ng/mL (≈ 0.195 µM)
- MIC (Candida albicans; IFO0579, strain IFO 0579, 80% inhibition): 31.3 ng/mL (≈ 0.0979 µM)
- MIC (Candida albicans; IFO1269, strain IFO 1269, 80% inhibition): 62.5 ng/mL (≈ 0.195 µM)
- MIC (Candida albicans; IFO1270, strain IFO 1270, 80% inhibition): 250 ng/mL (≈ 0.782 µM)
- MIC (Candida albicans; IFO1385, strain IFO 1385, 80% inhibition): 62.5 ng/mL (≈ 0.195 µM)
- MIC (Candida albicans; IFO1386, strain IFO 1386, 80% inhibition): 125 ng/mL (≈ 0.391 µM)
- MIC (Candida albicans; TIMM3163, strain TIMM 3163, 80% inhibition): 4000 ng/mL (≈ 12.5 µM)
- MIC (Candida albicans; TIMM3164, strain TIMM 3164, 80% inhibition): 250 ng/mL (≈ 0.782 µM)
- MIC (Candida albicans; TIMM3165, strain TIMM 3165, 80% inhibition): 2000 ng/mL (≈ 6.25 µM)
- MIC (Candida albicans; TIMM3166, strain TIMM 3166, 80% inhibition): 1000 ng/mL (≈ 3.13 µM)
- antifungal activity relative to the racemic mixtures (dermatophytes): several times
- in vitro antifungal activity relative to Racemic Compound (A) ([2]; MIC for T. mentagrophytes TIMM 2789): 4 times
- MIC ([2]; IFO5466, 168 h, strain IFO 5466): 20 ng/mL (≈ 0.0625 µM)
- MIC ([2]; IFO5809, 168 h, strain IFO 5809): 5 ng/mL (≈ 0.0156 µM)
- MIC ([2]; IFO5810, 168 h, strain IFO 5810): 5 ng/mL (≈ 0.0156 µM)
- MIC ([2]; IFO5811, 168 h, strain IFO 5811): 20 ng/mL (≈ 0.0625 µM)
- MIC ([2]; IFO5929, 168 h, strain IFO 5929): 10 ng/mL (≈ 0.0313 µM)
- MIC ([2]; TIMM1189, 168 h, strain TIMM 1189): 10 ng/mL (≈ 0.0313 µM)
- MIC ([2]; TIMM1814, 168 h, strain TIMM 1814): 20 ng/mL (≈ 0.0625 µM)
- MIC ([2]; TIMM1815, 168 h, strain TIMM 1815): 20 ng/mL (≈ 0.0625 µM)
- MIC ([2]; TIMM1817, 168 h, strain TIMM 1817): 20 ng/mL (≈ 0.0625 µM)
- MIC ([2]; TIMM2789, 168 h, strain TIMM 2789): 5 ng/mL (≈ 0.0156 µM)
